Laboratory results published in PubChem BioAssay AID2060905 (Molecular Pharmacology Branch, DTP, NCI, 2025).

Test system: 282377-053-R-J1-PDC complex spheroid viability
Assay: Anticancer human tumor 282377-053-R-J1-PDC patient-derived colon adenocarcinoma cell line growth inhibition [RAS]
Settings: for IC50: curve of first compound; for viability, T/C: stronger effect = lower value
Summary of the method: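 Multi-cell-type spheroids: tumor cells plus HUVEC endothelial cells and mesenchymal stem cells. RAS-pathway inhibitors were combined with targeted agents, each dosed in half-log steps down from clinical Cmax, or from 10 microM when Cmax was unknown.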

[1] = second compound 0.000949 µM, first compound 0.00316 µM
[2] = second compound 0.000949 µM, first compound 0.01 µM
[3] = second compound 0.000949 µM, first compound 0.0316 µM
[4] = second compound 0.000949 µM, first compound 0.1 µM
[5] = second compound 0.000949 µM, first compound 0.316 µM
[6] = second compound 0.000949 µM, first compound 1 µM
[7] = second compound 0.003 µM, first compound 0.00316 µM
[8] = second compound 0.003 µM, first compound 0.01 µM
[9] = second compound 0.003 µM, first compound 0.0316 µM
[10] = second compound 0.003 µM, first compound 0.1 µM
[11] = second compound 0.003 µM, first compound 0.316 µM
[12] = second compound 0.003 µM, first compound 1 µM
[13] = second compound 0.00949 µM, first compound 0.00316 µM
[14] = second compound 0.00949 µM, first compound 0.01 µM
[15] = second compound 0.00949 µM, first compound 0.0316 µM
[16] = second compound 0.00949 µM, first compound 0.1 µM
[17] = second compound 0.00949 µM, first compound 0.316 µM
[18] = second compound 0.00949 µM, first compound 1 µM
[19] = second compound 0.03 µM, first compound 0.00316 µM
[20] = second compound 0.03 µM, first compound 0.01 µM
[21] = second compound 0.03 µM, first compound 0.0316 µM
[22] = second compound 0.03 µM, first compound 0.1 µM
[23] = second compound 0.03 µM, first compound 0.316 µM
[24] = second compound 0.03 µM, first compound 1 µM
[25] = second compound 0.0949 µM, first compound 0.00316 µM
[26] = second compound 0.0949 µM, first compound 0.01 µM
[27] = second compound 0.0949 µM, first compound 0.0316 µM
[28] = second compound 0.0949 µM, first compound 0.1 µM
[29] = second compound 0.0949 µM, first compound 0.316 µM
[30] = second compound 0.0949 µM, first compound 1 µM
[31] = second compound 0.3 µM, first compound 0.00316 µM
[32] = second compound 0.3 µM, first compound 0.01 µM
[33] = second compound 0.3 µM, first compound 0.0316 µM
[34] = second compound 0.3 µM, first compound 0.1 µM
[35] = second compound 0.3 µM, first compound 0.316 µM
[36] = second compound 0.3 µM, first compound 1 µM
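Further: spheroids exposed to agents for seven days before readout.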
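Wherever viability, T/C is given: luminescence viability as percent of DMSO vehicle control wells.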

`C=CC(=O)Nc1cc(Nc2nccc(-c3cn(C)c4ccccc34)n2)c(OC)cc1N(C)CCN(C)C` + CCn1c(-c2cccnc2C(C)OC)c2c3cc(ccc31)N1CCOC(CC(NC(=O)C(C(C)C)N(C)C(=O)C3(F)CCN(C(=O)C#CC(C)(C)N(C)C)CC3)C(=O)N3CCCC(N3)C(=O)OCC(C)(C)C2)C1 gave an IC50 (second compound 0.000949 µM) greater than 1000 nM, an IC50 (second compound 0.003 µM) greater than 1000 nM and an IC50 (second compound 0.00949 µM) greater than 1000 nM. It also gave an IC50 (second compound 0.03 µM) greater than 1000 nM, an IC50 (second compound 0.0949 µM) greater than 1000 nM and an IC50 (second compound 0.3 µM) greater than 1000 nM. For the same compound, the viability, T/C [1] was 99%, the viability, T/C [2] was 126% and the viability, T/C [3] was 127%. The viability, T/C [4] was 92%, the viability, T/C [5] was 86% and the viability, T/C [6] was 123%. It also gave a viability, T/C [7] of 109%, a viability, T/C [8] of 177% and a viability, T/C [9] of 108%. The viability, T/C [10] was 81%, the viability, T/C [11] was 92.6% and the viability, T/C [12] was 88%. The viability, T/C [13] was 88%, the viability, T/C [14] was 188% and the viability, T/C [15] was 98%. It also gave a viability, T/C [16] of 84.8%, a viability, T/C [17] of 91.5% and a viability, T/C [18] of 119%. For the same compound, the viability, T/C [19] was 102%, the viability, T/C [20] was 140% and the viability, T/C [21] was 113%. For the same compound, the viability, T/C [22] was 114%, the viability, T/C [23] was 86.9% and the viability, T/C [24] was 97.4%. For the same compound, the viability, T/C [25] was 95.8%, the viability, T/C [26] was 153% and the viability, T/C [27] was 93.9%. It also gave a viability, T/C [28] of 98.5%, a viability, T/C [29] of 87.1% and a viability, T/C [30] of 124%. For the same compound, the viability, T/C [31] was 85.7%, the viability, T/C [32] was 134% and the viability, T/C [33] was 99.5%. For the same compound, the viability, T/C [34] was 102%, the viability, T/C [35] was 97.2% and the viability, T/C [36] was 121%.
With `CC(Nc1ccc2c(c1)OCCn1cc(N3C(=O)OCC3C(F)F)nc1-2)C(N)=O` (stereo unspecified) + CCn1c(-c2cccnc2C(C)OC)c2c3cc(ccc31)N1CCOC(CC(NC(=O)C(C(C)C)N(C)C(=O)C3(F)CCN(C(=O)C#CC(C)(C)N(C)C)CC3)C(=O)N3CCCC(N3)C(=O)OCC(C)(C)C2)C1 the IC50 (second compound 0.000949 µM) was greater than 10000 nM, the IC50 (second compound 0.003 µM) was greater than 10000 nM and the IC50 (second compound 0.00949 µM) was greater than 10000 nM. For the same compound, the IC50 (second compound 0.03 µM) was greater than 10000 nM, the IC50 (second compound 0.0949 µM) was greater than 10000 nM and the IC50 (second compound 0.3 µM) was greater than 10000 nM. The viability, T/C [3] was 97.3%, the viability, T/C [4] was 101% and the viability, T/C [5] was 86.2%. For the same compound, the viability, T/C [6] was 88.7%, the viability, T/C (second compound 0.000949 µM, first compound 3.16 µM) was 109% and the viability, T/C (second compound 0.000949 µM, first compound 10 µM) was 80.8%. It also gave a viability, T/C [9] of 99.8%, a viability, T/C [10] of 97.7% and a viability, T/C [11] of 86.9%. For the same compound, the viability, T/C [12] was 94.4%, the viability, T/C (second compound 0.003 µM, first compound 3.16 µM) was 97.5% and the viability, T/C (second compound 0.003 µM, first compound 10 µM) was 78.1%. The viability, T/C [15] was 118%, the viability, T/C [16] was 85.9% and the viability, T/C [17] was 84%. For the same compound, the viability, T/C [18] was 104%, the viability, T/C (second compound 0.00949 µM, first compound 3.16 µM) was 86.3% and the viability, T/C (second compound 0.00949 µM, first compound 10 µM) was 76.3%. For the same compound, the viability, T/C [21] was 83.7%, the viability, T/C [22] was 83.8% and the viability, T/C [23] was 86.5%. The viability, T/C [24] was 98.5%, the viability, T/C (second compound 0.03 µM, first compound 3.16 µM) was 110% and the viability, T/C (second compound 0.03 µM, first compound 10 µM) was 75.2%. The viability, T/C [27] was 102%, the viability, T/C [28] was 113% and the viability, T/C [29] was 78.8%. For the same compound, the viability, T/C [30] was 88.8%, the viability, T/C (second compound 0.0949 µM, first compound 3.16 µM) was 96.2% and the viability, T/C (second compound 0.0949 µM, first compound 10 µM) was 74.8%. The viability, T/C [33] was 84.7%, the viability, T/C [34] was 85.5% and the viability, T/C [35] was 96.7%. For the same compound, the viability, T/C [36] was 98.5%, the viability, T/C (second compound 0.3 µM, first compound 3.16 µM) was 92.2% and the viability, T/C (second compound 0.3 µM, first compound 10 µM) was 82.7%.
With `O=C(c1ccc(F)c(F)c1Nc1ccc(I)cc1F)N1CC(O)([C@@H]2CCCCN2)C1` + CCn1c(-c2cccnc2C(C)OC)c2c3cc(ccc31)N1CCOC(CC(NC(=O)C(C(C)C)N(C)C(=O)C3(F)CCN(C(=O)C#CC(C)(C)N(C)C)CC3)C(=O)N3CCCC(N3)C(=O)OCC(C)(C)C2)C1 the IC50 (second compound 0.000949 µM) was 74.2 nM, the IC50 (second compound 0.003 µM) was 125 nM and the IC50 (second compound 0.00949 µM) was 93.5 nM. The IC50 (second compound 0.03 µM) was 165 nM, the IC50 (second compound 0.0949 µM) was 25 nM and the IC50 (second compound 0.3 µM) was 73.8 nM. The viability, T/C [1] was 66.2%, the viability, T/C [2] was 80.3% and the viability, T/C [3] was 78.2%. It also gave a viability, T/C [4] of 41.3%, a viability, T/C [5] of 30.4% and a viability, T/C [6] of 17.1%. For the same compound, the viability, T/C [7] was 70.2%, the viability, T/C [8] was 74.1% and the viability, T/C [9] was 71.4%. It also gave a viability, T/C [10] of 42.2%, a viability, T/C [11] of 42.6% and a viability, T/C [12] of 14.7%. The viability, T/C [13] was 74.3%, the viability, T/C [14] was 90% and the viability, T/C [15] was 48.3%. It also gave a viability, T/C [16] of 59.2%, a viability, T/C [17] of 29.2% and a viability, T/C [18] of 22.5%. For the same compound, the viability, T/C [19] was 82.8%, the viability, T/C [20] was 75.3% and the viability, T/C [21] was 70.3%. For the same compound, the viability, T/C [22] was 56%, the viability, T/C [23] was 41.6% and the viability, T/C [24] was 21%. The viability, T/C [25] was 67.2%, the viability, T/C [26] was 81.3% and the viability, T/C [27] was 43.8%. It also gave a viability, T/C [28] of 33.7%, a viability, T/C [29] of 37.9% and a viability, T/C [30] of 20.6%. For the same compound, the viability, T/C [31] was 64.3%, the viability, T/C [32] was 91.2% and the viability, T/C [33] was 53.7%. It also gave a viability, T/C [34] of 46.6%, a viability, T/C [35] of 30.1% and a viability, T/C [36] of 17.6%.
